What was measured:
Type in all cases: in vivo
Details in all cases: 1000 g/Ha, evaluated after 13 days, glasshouse
[1] = test system: Echinochloa crus-galli (ECHCG); test: Pre-emergence herbicidal activity, percentage damage to ECHCG
Experimental: (§1) Seeds of a variety of test species are sown in standard soil in pots Amaranthus palmeri (AMAPA), Amaranthus retroflexus (AMARE), Setaria faberi (SETFA), Echinochloa crus-galli (ECHCG), Ipomoea hederacea (IPOHE),). After cultivation for one day (pre-emergence) or after 8 days cultivation (post-emergence) under controlled conditions in a glasshouse (at 24/160C, day/night; 14 hours light; 65% humidity), the plants are sprayed with an aqueous spray solution derived from the dissolution of the technical active ingredient in a small amount of acetone and a special solvent and emulsifier mixture referred to as IF50 (11.12% Emulsogen EL360 TM+44.44% N-methylpyrrolidone+44.44% Dowanol DPM glycol ether, which was then diluted to required concentration using 0.2% Genapol XO80 (CAS No. 9043-30-5) in water as the diluent. Compounds are applied at the rates stated. The test plants are then grown in a glasshouse under controlled conditions in a glasshouse (at 24/160C, day/night; 14 hours light; 65% humidity) and watered twice daily. After 13 days for pre and post-emergence, the test is evaluated for the percentage damage caused to the plant. The biological activities are shown in the following table on a five-point scale (5=81-100%; 4=61-80%; 3=41-60%; 2=21-40%; 1=0-20%; NT=not tested).

[2] = test system: Amaranthus palmeri (AMAPA); test: Post-emergence herbicidal activity, percentage damage to AMAPA
Experimental: as §1

Setaria faberi (SETFA) [3] = test: Post-emergence herbicidal activity, percentage damage to SETFA
Experimental: as §1

Setaria faberi (SETFA) [4] = test: Pre-emergence herbicidal activity, percentage damage to SETFA
Experimental: as §1

[5] = test system: Amaranthus retroflexus (AMARE); test: Pre-emergence herbicidal activity, percentage damage to AMARE
Experimental: as §1

[6] = test system: Echinochloa crus-galli (ECHCG); test: Post-emergence herbicidal activity, percentage damage to ECHCG
Experimental: as §1

[7] = test system: Amaranthus palmeri (AMAPA); test: Pre-emergence herbicidal activity, percentage damage to AMAPA
Experimental: as §1

[8] = test system: Amaranthus retroflexus (AMARE); test: Post-emergence herbicidal activity, percentage damage to AMARE
Experimental: as §1

[9] = test system: Ipomoea hederacea (IPOHE); test: Post-emergence herbicidal activity, percentage damage to IPOHE
Experimental: as §1

[10] = test system: Ipomoea hederacea (IPOHE); test: Pre-emergence herbicidal activity, percentage damage to IPOHE
Experimental: as §1

| SMILES | percentage damage caused to the plant (ECHCG) [1] | percentage damage caused to the plant (AMAPA) [2] | percentage damage caused to the plant (SETFA) (Setaria faberi (SETFA) [3]) | percentage damage caused to the plant (SETFA) (Setaria faberi (SETFA) [4]) | percentage damage caused to the plant (AMARE) [5] | percentage damage caused to the plant (ECHCG) [6] | percentage damage caused to the plant (AMAPA) [7] | percentage damage caused to the plant (AMARE) [8] | percentage damage caused to the plant (IPOHE) [9] | percentage damage caused to the plant (IPOHE) [10] |
| --- | --- | --- | --- | --- | --- | --- | --- | --- | --- | --- |
| O=C(O)C[C@@H]1[C@@H]2C[C@@H]2C(=O)N1Cc1cccc(F)c1F (relative stereo) [A.01, 2-[(1R*,2R*,5S*)-3-[(2,3-difluorophenyl)methyl]-4-oxo-3-azabicyclo[3.1.0]hexan-2-yl]acetic acid] | 4 (61-80%) | 2 (21-40%) | 5 (81-100%) | 5 (81-100%) | 4 (61-80%) | 4 (61-80%) | 2 (21-40%) | 4 (61-80%) | 3 (41-60%) | 2 (21-40%) |
| COC(=O)C[C@H]1[C@@H]2C[C@@H]2C(=O)N1Cc1cccc(F)c1F (relative stereo) [A.10, methyl 2-[(1R*,2S*,5S*)-3-[(2,3-difluorophenyl)methyl]-4-oxo-3-azabicyclo[3.1.0]hexan-2-yl]acetate] | 1 (0-20%) | 1 (0-20%) | 4 (61-80%) | 4 (61-80%) | 2 (21-40%) | 2 (21-40%) | 2 (21-40%) | 2 (21-40%) | 2 (21-40%) | 1 (0-20%) |
| O=C(O)C[C@@H]1[C@@H]2C[C@@H]2C(=O)N1Cc1ccccc1F (relative stereo) [A.61, 2-[(1R*,2R*,5S*)-3-[(2-fluorophenyl)methyl]-4-oxo-3-azabicyclo[3.1.0]hexan-2-yl]acetic acid] | 3 (41-60%) | 3 (41-60%) | 5 (81-100%) | 5 (81-100%) | 5 (81-100%) | 3 (41-60%) | 4 (61-80%) | 4 (61-80%) | 3 (41-60%) | 1 (0-20%) |
| O=C(O)C[C@@H]1[C@@H]2C[C@@H]2C(=O)N1Cc1cccc(F)c1 (relative stereo) [A.64, 2-[(1R*,2R*,5S*)-3-[(3-fluorophenyl)methyl]-4-oxo-3-azabicyclo[3.1.0]hexan-2-yl]acetic acid] | 4 (61-80%) | 3 (41-60%) | 5 (81-100%) | 5 (81-100%) | 5 (81-100%) | 3 (41-60%) | 4 (61-80%) | 4 (61-80%) | 3 (41-60%) | 4 (61-80%) |
| O=C(O)C[C@@H]1[C@@H]2C[C@@H]2C(=O)N1Cc1ccc(F)cc1 (relative stereo) [A.67, 2-[(1R*,2R*,5S*)-3-[(4-fluorophenyl)methyl]-4-oxo-3-azabicyclo[3.1.0]hexan-2-yl]acetic acid] | 3 (41-60%) | 3 (41-60%) | 4 (61-80%) | 3 (41-60%) | 3 (41-60%) | 2 (21-40%) | 4 (61-80%) | 1 (0-20%) | 2 (21-40%) | 4 (61-80%) |
| O=C(O)C[C@@H]1[C@@H]2C[C@@H]2C(=O)N1Cc1cccc(Cl)c1 (relative stereo) [A.70, 2-[(1R*,2R*,5S*)-3-[(3-chlorophenyl)methyl]-4-oxo-3-azabicyclo[3.1.0]hexan-2-yl]acetic acid] | 4 (61-80%) | 3 (41-60%) | 4 (61-80%) | 5 (81-100%) | 2 (21-40%) | 3 (41-60%) | 1 (0-20%) | 1 (0-20%) | 1 (0-20%) | 1 (0-20%) |
| O=C(O)C[C@@H]1[C@@H]2C[C@@H]2C(=O)N1Cc1ccc(F)c(F)c1 (relative stereo) [A.73, 2-[(1R*,2R*,5S*)-3-[(3,4-difluorophenyl)methyl]-4-oxo-3-azabicyclo[3.1.0]hexan-2-yl]acetic acid] | 3 (41-60%) | 1 (0-20%) | 4 (61-80%) | 5 (81-100%) | 4 (61-80%) | 3 (41-60%) | 3 (41-60%) | 2 (21-40%) | 1 (0-20%) | 4 (61-80%) |
| O=C(O)C[C@@H]1[C@@H]2C[C@@H]2C(=O)N1Cc1ccc(Cl)cc1F (relative stereo) [A.76, 2-[(1R*,2R*,5S*)-3-[(2-fluoro-4-chloro)methyl]-4-oxo-3-azabicyclo[3.1.0]hexan-2-yl]acetic acid] | 1 (0-20%) | 1 (0-20%) | 3 (41-60%) | 3 (41-60%) | 1 (0-20%) | 1 (0-20%) | 3 (41-60%) | 1 (0-20%) | 2 (21-40%) | 4 (61-80%) |
| O=C(O)C[C@@H]1[C@@H]2CCCC[C@@H]2C(=O)N1Cc1cccc(F)c1F (relative stereo) [E.01, 2-[(1R*,3aS*,7aR*)-2-[(2,3-difluorophenyl)methyl]-3-oxo-3a,4,5,6,7,7a-hexahydro-1H-isoindol-1-yl]acetic acid] | 2 (21-40%) | 1 (0-20%) | 1 (0-20%) | 1 (0-20%) | 3 (41-60%) | 1 (0-20%) | 3 (41-60%) | 1 (0-20%) | 1 (0-20%) |  |

From US20260293894A1, “FUSED PYRROLIDINE-2-ONE HERBICIDAL COMPOUNDS” (SYNGENTA CROP PROTECTION AG, priority 2023, published 2026)
